Source: publication PMC5241706, “Biochemical and Structural Characterization of Selective Allosteric Inhibitors of the Plasmodium falciparum Drug Target, Prolyl-tRNA-synthetase” (ACS Infectious Diseases, 2016)
“And” between values parts separate entries of the source, which are not always exact repeats. Equal entries are not always repeated.

Experiments:
PfProRS [1] = biological target: T1, PfProRS (Plasmodium falciparum, UniProt Q8I5R7); assay: luciferase ATP depletion assay, HTS format; assay type: biochemical
T1 construct: B2, AA7–746 (minus 6 amino acids, or 99% of the ORF); made in house; host or cells: E. coli BL21(DE3)R3 Rosetta Oxford

HsProRS = biological target: T2, HsProRS (Homo sapiens, UniProt P07814); assay: luciferase ATP depletion assay, counter-screen; assay type: biochemical
T2 construct: made in house
T2 sequence (P07814 1007-1512 limits assumed): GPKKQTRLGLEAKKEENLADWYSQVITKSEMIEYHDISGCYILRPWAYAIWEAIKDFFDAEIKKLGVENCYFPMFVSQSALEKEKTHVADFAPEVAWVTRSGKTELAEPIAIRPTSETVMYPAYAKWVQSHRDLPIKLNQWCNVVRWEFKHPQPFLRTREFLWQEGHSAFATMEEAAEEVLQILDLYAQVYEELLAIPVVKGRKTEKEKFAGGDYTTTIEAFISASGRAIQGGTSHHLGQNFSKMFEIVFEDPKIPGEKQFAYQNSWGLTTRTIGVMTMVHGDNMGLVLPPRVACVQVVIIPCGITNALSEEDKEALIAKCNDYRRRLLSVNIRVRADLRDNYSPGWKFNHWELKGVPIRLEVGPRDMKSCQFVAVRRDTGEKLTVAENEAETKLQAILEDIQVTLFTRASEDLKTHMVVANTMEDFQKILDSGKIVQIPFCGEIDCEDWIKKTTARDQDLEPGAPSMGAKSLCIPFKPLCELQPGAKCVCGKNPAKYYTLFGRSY

PfProRS [2] = biological target: T1, PfProRS; assay: biochemical; assay type: biochemical; conditions: read-out: Pf ProRS IC50
[3] = tested on: Plasmodium falciparum strain 3D7; assay: Plasmodium falciparum growth inhibition, SYBR green fluorescence; assay type: cell-based; conditions: 3D7, growth inhibition, read-out: Pf (3D7) EC50
HsHEPG2 = assay: mammalian cell line selectivity; assay type: cell-based; conditions: Homo sapiens; data not shown
Description: (§1) […]. In addition to its activity and selectivity, it has good physicochemical and DMPK properties. […].

experimental CHI-logD = assay type: physicochemical; conditions: HPLC retention (chromatographic hydrophobicity index, CHI)
Description: as §1

[4] = kinetic aqueous solubility, laser nephelometry; assay type: physicochemical; conditions: MilliQ water with 1.0% DMSO, kinetic from dmso stock
Protocol: (§2) 485nm (Plouffe et al., 2008).
(§3) described (Vedadi et al., 2006).
(§4) Orange Dye (Life Technologies S-6650).
(§5) In vitro Cell Assay Data Analysis
(§6) (Patterson et al., 2013). […] An
(§7) Triplicate aliquots were transferred to a flat
(§8) Intrinsic Clearance (CLi) experiments
(§9) Test compound (0.5 µM) was
(§10) phosphate buffer, pH 7.4).
(§11) The rate of intrinsic clearance (CLi)
(§12) 52.5mg protein per g liver.
(§13) Ion homeostasis in the malaria parasite

[5] = intrinsic clearance in liver microsomes; assay type: in vitro ADME
Protocol: as §2, §3, §4, §5, §6, §7, §8, §9, §10, §11, §12, §13

PfProRS [6] = biological target: T1, PfProRS; assay: ATP consumption assay with proline or ATP varied (competition); assay type: biochemical
[7] = tested on: isolated 3D7 trophozoites (pHi); assay: pH assay, BCECF-loaded isolated trophozoites; conditions: TCMDC-124506 5 μM; KAE609 50 nM
[8] = read-out: Percentage inhibition Pf ProRS

T1 sequence (Q8I5R7 7-746): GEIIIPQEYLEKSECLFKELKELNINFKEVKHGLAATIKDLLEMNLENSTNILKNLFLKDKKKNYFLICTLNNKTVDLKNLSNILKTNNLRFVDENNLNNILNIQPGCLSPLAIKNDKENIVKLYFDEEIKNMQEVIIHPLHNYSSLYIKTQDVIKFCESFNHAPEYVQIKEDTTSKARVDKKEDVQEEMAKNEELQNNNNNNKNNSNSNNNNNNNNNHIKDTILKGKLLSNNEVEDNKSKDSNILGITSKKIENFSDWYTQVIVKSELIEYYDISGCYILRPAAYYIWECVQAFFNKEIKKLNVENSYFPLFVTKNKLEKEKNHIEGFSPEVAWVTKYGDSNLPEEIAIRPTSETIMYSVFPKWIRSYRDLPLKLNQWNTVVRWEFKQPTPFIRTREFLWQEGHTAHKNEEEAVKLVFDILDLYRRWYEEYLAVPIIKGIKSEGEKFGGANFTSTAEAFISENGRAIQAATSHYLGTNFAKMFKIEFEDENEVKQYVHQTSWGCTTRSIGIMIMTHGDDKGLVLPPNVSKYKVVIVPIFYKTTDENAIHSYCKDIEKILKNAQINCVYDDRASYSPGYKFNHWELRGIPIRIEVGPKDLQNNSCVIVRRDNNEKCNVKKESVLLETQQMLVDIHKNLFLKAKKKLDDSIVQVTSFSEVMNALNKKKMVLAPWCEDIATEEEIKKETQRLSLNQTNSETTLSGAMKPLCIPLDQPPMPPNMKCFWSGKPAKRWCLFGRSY

With Cn1nc(C(F)(F)F)c(-c2ccc(F)cc2)c1NC(=O)Nc1ccc(F)cc1 [TCMDC-124506] the IC50 (PfProRS [1]; 75 nM ProRS, 60 μM proline, 6 μM ATP, 400 μg/mL yeast tRNA, 2 h 37 °C, read-out: PfProRS IC50) was 74 µM and 73 µM, the inhibition at 2.5 µM (PfProRS [1]; [8]) was -0.36% and the inhibition at 4.9 µM (PfProRS [1]; [8]) was -2.4%. The inhibition at 9.8 µM (PfProRS [1]; [8]) was 3.73%, the inhibition at 19.5 µM (PfProRS [1]; [8]) was 10.8% and the inhibition at 39 µM (PfProRS [1]; [8]) was 30.9%. For the same compound, the inhibition at 78 µM (PfProRS [1]; [8]) was 55.8%, the inhibition at 156 µM (PfProRS [1]; [8]) was 79.5% and the inhibition at 313 µM (PfProRS [1]; [8]) was 80.4%. For the same compound, the inhibition at 625 µM (PfProRS [1]; [8]) was 96.2%, the inhibition at 1250 µM (PfProRS [1]; [8]) was 97% and the IC50 (HsProRS) was > 700 µM. The inhibition at 2.5 µM (HsProRS; at 2.5 μM, read-out: Percentage inhibition Hs ProRS) was 0.3%, the inhibition at 4.9 µM (HsProRS; at 4.9 μM, read-out: Percentage inhibition Hs ProRS) was 0.28% and the inhibition at 9.8 µM (HsProRS; at 9.8 μM, read-out: Percentage inhibition Hs ProRS) was 0.01%. The inhibition at 19.5 µM (HsProRS; at 19.5 μM, read-out: Percentage inhibition Hs ProRS) was -0.08%, the inhibition at 39 µM (HsProRS; at 39 μM, read-out: Percentage inhibition Hs ProRS) was 0.26% and the inhibition at 78 µM (HsProRS; at 78 μM, read-out: Percentage inhibition Hs ProRS) was 0.84%. For the same compound, the inhibition at 156 µM (HsProRS; at 156 μM, read-out: Percentage inhibition Hs ProRS) was 0.82%, the inhibition at 313 µM (HsProRS; at 313 μM, read-out: Percentage inhibition Hs ProRS) was 0.26% and the inhibition at 625 µM (HsProRS; at 625 μM, read-out: Percentage inhibition Hs ProRS) was 0.12%. The inhibition at 1250 µM (HsProRS; at 1250 μM, read-out: Percentage inhibition Hs ProRS) was 0.04%, the “inhibitory activity for HsProRS” value (HsProRS; up to the limit of solubility (>1 mM)) was < 40% and the IC50 (PfProRS [2]) was 5 µM. For the same compound, the EC50 [3] was 0.6 µM, the EC50 (HsHEPG2) was > 50 µM and the chromatographic logD (experimental CHI-logD) was 2.9. For the same compound, the solubility kinetic [4] was > 250 µM, the “mouse microsomal clearance (Cli)” value [5] was 1.6 mL/min/g and the mode of inhibition (PfProRS [6]) was “competitive allosteric inhibitor”. It also gave an IC50 (PfProRS [6]; IC50 of TCMDC-124506 as a function of proline, Pro=30 M) of 88 µM, an IC50 (PfProRS [6]; IC50 of TCMDC-124506 as a function of proline, Pro=60) of 110 µM and an IC50 (PfProRS [6]; IC50 of TCMDC-124506 as a function of proline, Pro=120) of 128 µM. It also gave an IC50 (PfProRS [6]; IC50 of TCMDC-124506 as a function of proline, Pro=240) of 151 µM, a Ki (PfProRS [6]; Ki (Cheng-Prusoff, competition with ATP), intercept of IC50 vs [ATP]) of 51 ± 1.6 µM and a Ki (PfProRS [6]; Ki (Cheng-Prusoff, competition with proline), intercept of IC50 vs [Proline]) of 80 ± 4.9 µM. It also gave an IC50 (PfProRS [6]; TCMDC-124506 IC50 as a function of ATP, ATP=3 M) of 74.4 µM, an IC50 (PfProRS [6]; TCMDC-124506 IC50 as a function of ATP, ATP=6) of 103 µM and an IC50 (PfProRS [6]; TCMDC-124506 IC50 as a function of ATP, ATP=12) of 145 µM. For the same compound, the “effect on acidification after concanamycin A (100 nM)” value [7] was “a reduction in the degree of acidification” and the “effect on parasite cytosolic pH (pHi)” value [7] was “caused an increase in pHi”.
